From article PMC3586934 (Anesthesiology, 2012)
Where two headings read alike, the source gives them in different places.

Legend:
CYP2B6 = conditions: cited from earlier work
CYP3A4 = conditions: cited from earlier work
Intravenous = conditions: for Cmax / AUC(0-t) / AUC(0-inf): both, human, in vivo; for AUC(0-t): AUC0-96, oral methadone; for AUC(0-inf): AUC0-∞; for AUC(0-inf) / Foral: oral methadone
[1] = both, human, in vivo, iv
[2] = cited from earlier work
[3] = cited from earlier work; remark: listed apart in the source
healthy volunteers = conditions: 6.0 mg intravenous plus 11.0 mg oral methadone HCl
P-gp [4] = conditions: cited from earlier work
CYP3A = conditions: human, in vivo; cited from earlier work
P-gp [5] = conditions: rats; cited from earlier work

For `CCC(=O)C(C[C@H](C)N(C)C)(c1ccccc1)c1ccccc1` [S-methadone], the Km (CYP2B6) is listed as 16 µM, the Km (CYP3A4) is listed as 149 µM and the Cmax (Intravenous; iv, 6 mg) is listed as 83 ± 39 ng/mL. The Cmax (Intravenous; po, 11 mg) was 30 ± 10 ng/mL, the AUC(0-t) (Intravenous; po, 11 mg, control) was 688 ± 169 ng·h/mL and the AUC(0-inf) (Intravenous; po, 11 mg, control) was 780 ± 200 ng·h/mL. For the same molecule, the AUC(0-t) (Intravenous; po, after indinavir) was 685 ± 131 ng·h/mL, the AUC(0-inf) (Intravenous; po, after indinavir) was 805 ± 194 ng·h/mL and the Foral (Intravenous; after indinavir) was 0.90 ± 0.11. It also gave a Foral (Intravenous; control) of 0.87 ± 0.10 and an EH [1] of 0.06 ± 0.02.

In the case of `O=C1Nc2ccc(Cl)cc2[C@@](C#CC2CC2)(C(F)(F)F)O1` [efavirenz], the “methadone clearance, change” value [2] is listed as “doubled”.

For `CCC(=O)C(CC(C)N(C)C)(c1ccccc1)c1ccccc1` (stereo not shown) [methadone], the FG predicted [3] is given as 0.97, the “FG, average in several investigations” value [3] is given as 0.96 and the “EH, average” value ([3]; intravenous methadone) is given as 0.09. The fhep ([3]; intravenous methadone) was 0.76, the “AUEC0-∞” value (healthy volunteers; after indinavir) was 96± 56 mm•hr and the Maximum miosis (healthy volunteers; after indinavir) was 3.6 ± 1.0 mm. For the same molecule, the “AUEC0-∞” value (healthy volunteers; control) was 87 ± 66 mm•hr and the Maximum miosis (healthy volunteers; control) was 3.6 ± 1.0 mm.

For `Cc1c(O)cccc1C(=O)N[C@@H](CSc1ccccc1)[C@H](O)CN1C[C@H]2CCCC[C@H]2C[C@H]1C(=O)NC(C)(C)C` [nelfinavir], the “fexofenadine Cmax, change” value (P-gp [4]) is given as “decreased”, the “inhibition of first-pass CYP3A” value (CYP3A) is given as over 75% and the “inhibition of hepatic CYP3A” value (CYP3A) is given as 50%.

For `CO[C@H]1/C=C/O[C@@]2(C)Oc3c(C)c(O)c4c(O)c(c(/C=N/N5CCN(C)CC5)c(O)c4c3C2=O)NC(=O)/C(C)=C\C=C\[C@H](C)[C@H](O)[C@@H](C)[C@@H](O)[C@@H](C)[C@H](OC(C)=O)[C@@H]1C` [rifampin], the “methadone clearance, change” value [2] is given as “doubled”.

In the case of `CC(C)c1nc(CN(C)C(=O)N[C@H](C(=O)N[C@@H](Cc2ccccc2)C[C@H](O)[C@H](Cc2ccccc2)NC(=O)OCc2cncs2)C(C)C)cs1` [ritonavir], the “methadone clearance, change” value [2] is listed as “doubled”.

For `C/C=C/C[C@@H](C)C(=O)[C@H]1C(=O)N[C@@H](C(C)C)C(=O)N(C)CC(=O)N(C)[C@@H](CC(C)C)C(=O)N[C@@H](C(C)C)C(=O)N(C)[C@@H](CC(C)C)C(=O)N[C@@H](C)C(=O)N[C@H](C)C(=O)N(C)[C@@H](CC(C)C)C(=O)N(C)[C@@H](CC(C)C)C(=O)N(C)[C@@H](C(C)C)C(=O)N1C` [valspodar], the “oral methadone bioavailability, change” value (P-gp [5]) is given as “increased”.

For `C[C@@H](c1ncncc1F)[C@](O)(Cn1cncn1)c1ccc(F)cc1F` [voriconazole], the “R-methadone AUC, increase” value [2] is listed as 47% and the “S-methadone AUC, increase” value [2] is listed as 103%.
